Test results as given in US20110124604A1, “PHOSPHOLIPID RECEPTORS AS TARGETS FOR ENHANCING DRUG PERMEABILITY TO SELECTED TISSUES” (priority 2006, published 2011).
“Also recorded” adds a separate entry of the source. One block for each compound: values may come before it.

What was measured:
[1] = In vivo permeability study, 3H-methotrexate tissue distribution in mice; set-up: species or system mouse; details: female, Balb/c, mouse, brain / plasma, intravenous, 4 uCi total activity; methotrexate alone; 15 minutes after systemic administration; read-out: brain to plasma ratio of 3H-methotrexate in control mice
Procedure: (§1) FIG. 11. Bar graph showing 20 fold increase in ^3H-methotrexate uptake in mouse brain when LPA is present. Adult female Balb/c mice were administered radiolabeled methotrexate via bolus tail vein injection. The radiolabeled methotrexate was given either alone, or in the presence of 1.0 mg/kg LPA. Fifteen minutes after injection of radiolabeled methotrexate, the mice were sacrificed and blood and tissue (brain, lung, kidney and liver) samples removed. The brain was homogenized and the cerebral microvascular endothelial cells were separated from the rest of the brain via centrifugation in 13% dextran solution at 7500×g for 15 minutes. Samples of the brain parachyma were removed for determination of radioactivity along with other tissue homogenates. Under normal conditions less than 1% of the injected dose of radiolabeled methotrexate was delivered to the brain. However, in the presence of LPA, an approximately 20-fold enhancement of radiolabeled methotrexate delivery to the brain was observed.
(§2) Female Balb/c mice were used to assess BBB permeability in vivo. Mice received a bolus injection (ml/kg) of ^3H-methotrexate (4 uCi total activity) via the tail vein. The radiolabeled methotrexate was given in combination with either LPA (1 mg/kg) or vehicle (0.25% bovine serum albumin in phosphate buffered saline solution). Fifteen minutes after the injection of methotrexate, mice were anesthetized using intraperitoneal injection of ketamine and xylazine and a sample of blood was removed by cardiac puncture. Following the blood sample, mice were sacrificed and various tissues including, the brain, lung, liver and kidney, were removed for determination of 3H-methotrexate. Blood samples were spun for 8-10 minutes and 100 uL of plasma was collected. Tissue samples were weighed and homogenized with double the volume of tissue solubilizing agent (Scintigest™, Fisher Scientific). A 200 uL aliquot of the tissue homogenate was used to analyse the tissue samples. The samples were then mixed with Ultima Gold™ (Perkin Elmer) scintillation cocktail and analysed by liquid scintillation counter (Perkin Elmer) to determine the amount of ^3H-methotrexate present in the blood and tissue. The distribution of ^3H-methotrexate was based on the ratio of the radioactivity in the tissue versus the radioactivity in the plasma sample.

blood-brain barrier [2] = assay: as above; set-up: species or system mouse
Procedure: as §1, §2

[3] = system: bovine brain microvessel endothelial cell (BBMEC) monolayers; assay: Permeability of confluent BBMEC monolayers (FDX-3000 flux); assay type: cell-based; details: for effect on BBMEC permeability in words: 0.1, 1 and 10 uM; for onset of permeability effect: earliest time point tested 15 min
BBMEC monolayers = assay: Polarity studies: apical or basolateral application on BBMEC monolayers; assay type: cell-based, bovine
Procedure: (§3) The permeability effects of LPA and S1P were examined in various microvessel endothelial cell preparations. Primary bovine and porcine brain microvessel endothelial cells (BBMEC and PBMEC, respectively) were collected from the gray matter of fresh cow and pig cerebral cortices using a combination of enzymatic digestion and centrifugal separation methods previously described. The BBMECs and the PBMEC were seeded (50,000 cells/cm2) on collagen coated, fibronectin treated, 6-well Transwell polycarbonate membrane inserts (0.4 um pore/24 mm diameter). The culture media consisted of: 45% minimum essential medium eagle (MEM), 45% Ham's P 12 nutrient mix, 10 mM HEPES, 13 mM sodium bicarbonate, 50 ug/ml gentamicin, 10% equine serum, 2.5 ug/ml amphotericin B, and 100 ug/ml heparin. […]
For studies examining the functional polarity of LPA and S1P […] of the phospholipids were applied to either the apical or basolateral side of confluent brain microvessel endothelial cell monolayers. There was 30 min AB pretreatment followed by treatment with either LPA and S1P on either apical and/or basolateral side and the flux of FDX-3000 across the monolayer was measured. Permeability across the cell monolayers was determined by adding 10 uM fluorescein-labeled dextran (FDX-3000; MW 3000) to the donor compartment. […] Samples were analyzed as described above.

blood-brain barrier [4] = assay type: in vivo, mouse; details: 15 minutes, mice
Procedure: FIG. 12. Adult female Balb/c mice were anesthetized with ketamine xylazine cocktail, and given a bolus i.v. (tail vein) injection of the near infrared fluorescent dye, rhodamine 800 (3.2 μmol/kg) either alone or in the presence of LPA (1.0 mg/kg) or the combination of LPA and S1P (0.1 mg/kg). Mice were sacrificed at 15 minutes following injection of rhodamine 800 and following perfusion with formalin through cardiac puncture, the brain was removed and sliced (3 mm) coronally. The appearance of rhodamine 800 was visualized using an Odyssey near infrared imaging system. […] The rhodamine 800 is confined primarily to the cerebral spinal fluid present in the ventricles (the small bright regions observed in the various brain slices). […] This is evident by the intense bright fluorescence of the brain slices in the LPA treated mouse.

[5] = system: porcine brain microvessel endothelial cells (PBMEC); assay: Permeability of porcine BMEC monolayers (FDX-3000 flux); assay type: cell-based; details: LPA 0.1, 1 and 10 uM
Procedure: as §3, with “diameter).” for “diameter). The culture media consisted of: 45% minimum essential medium eagle (MEM), 45% Ham's P 12 nutrient mix, 10 mM HEPES, 13 mM sodium bicarbonate, 50 ug/ml gentamicin, 10% equine serum, 2.5 ug/ml amphotericin B, and 100 ug/ml heparin.”
Permeability studies were performed on confluent BBMEC and PBMEC, monolayers at […]. […] Permeability across the cell monolayers was determined by adding 10 uM fluorescein-labeled dextran (FDX-3000; MW 3000) to the donor (apical) compartment. […] The concentration of FDX-3000 in the donor and receiver samples was measured spectrofluorometrically using a Shimadzu RFU5000 spectrofluorometer (Shimadzu Scientific Instruments, Columbia, Md., USA) with Ex (7 v) at 488 nm and Em (2 k.) at 510 nm. Permeability was expressed as the percent transfer of the fluorescent marker across the monolayers. The percent transfer was determined by dividing the cumulative concentration in the receiver compartment by the original concentration in the donor compartment at time zero. Permeability coefficients were calculated from the following formula: […]

blood-brain barrier [6] = assay: Rat cranial window model, clearance of FDX 10 kDa; assay type: in vivo; details: LPA 10 uM
Procedure: Cerebral vascular permeability was also evaluated using the rat cranial window model. For these studies male Wistar-Furth rats (n=15) were anesthetized (Inactin; thiobutabarbital 100 mg/kg ip), and a tracheotomy was performed. The rats were mechanically ventilated with room air and supplemental oxygen. A catheter was placed in the femoral artery for the measurement of systemic blood pressure and to obtain blood samples. A catheter was placed in the femoral vein for injection of intravascular tracer FDX 10 10a. […] Blood gases were also monitored and maintained within normal limits. […]
Permeability of the BBB was evaluated by calculating the clearance of FDX 10 kDa (10^−6 ml/s) from the area of parietal cortex exposed by the craniotomy, as previously described (Mayhan and Heistad, Am J. Physiol, 248: H712-H718, 1985; Mayhan, Brain Research, 927: 144-152, 2002). Briefly, the suffusate fluid was collected in glass test tubes with the aide of a fraction collector, and the concentration of FDX in the suffusate fluid during topical application of vehicle (saline) or LPA (10 μM) was determined using a spectrofluorometer. […] The clearance of 1010a FDX was calculated by multiplying the suffusate-to-plasma concentration by the suffusate flow rate (Mayhan and Heistad, Am J. Physiol, 248: H712-H718, 1985; Mayhan, Brain Research, 927: 144-152, 2002). […]

[7] = LPA 1 mg/kg i.v., 15 minutes, mice

Kp at 15 min [1]: ~0.02 | share of the injected dose delivered to the brain (blood-brain barrier [2]; radiolabeled methotrexate alone, normal conditions, mice): less than 1%
Compound: CN(Cc1cnc2nc(N)nc(N)c2n1)c1ccc(C(=O)N[C@@H](CCC(=O)O)C(=O)O)cc1 [^3H-methotrexate, methotrexate, reference compound]

Compound: CCO [Ethanol, ethanol, reference compound]
increase in BBMEC monolayer permeability ([3]; ethanol 50 mM): 3 fold

Compound: CCCCCCCCCCCCC/C=C/[C@@H](O)[C@@H](N)COP(=O)(O)O [S1P, sphingosine 1-phosphate]
effect on BBMEC permeability in words ([3]; FDX-3000): equally as robust decrease in permeability; also recorded: decreased the permeability of FDX-3000; also recorded: concentration-dependent decreases | onset of permeability effect ([3]; BBMEC): ≤ 15 min | effect on the BBMEC permeability ([3]; S1P 0.1 uM): no significant effect | decrease in permeability of BBMEC ([3]; S1P 1 and 10 uM): 2 fold | effect of S1P on the permeability increase induced by LPA ([3]; S1P (10 uM) co-administered with LPA, BBMEC): completely overcome; also recorded: totally prevented; also recorded: abolished | effect of S1P on the permeability effect of ethanol ([3]; ethanol 50 mM and S1P, BBMEC): abolished; also recorded: decrease in permeability | effect of S1P on the permeability effect of horse serum ([3]; horse serum 10% and S1P, BBMEC): abolished; also recorded: decreased the permeability effect | duration of permeability effect ([3]; in the presence of S1P): 90 min | decrease in BBMEC monolayer permeability, applied apically or basolaterally (BBMEC monolayers; S1P 10 uM): approximately 2 fold | effect of S1P on the LPA-induced increase in rhodamine 800 brain distribution (blood-brain barrier [4]; LPA 1.0 mg/kg and S1P 0.1 mg/kg i.v.): prevents the increases

Compound: lysophosphatidic acid [LPA]
effect on BBMEC permeability in words ([3]; FDX-3000): concentration-dependent increase | onset of permeability effect ([3]; BBMEC): ≤ 15 min | increase in the permeability of BBMEC monolayers ([3]; LPA 10 uM, FDX-3000): 2 fold | increase in monolayer permeability ([3]; LPA 0.1 and 1 uM, FDX-3000, BBMEC): ~1.5 fold | increase in permeability following apical or basolateral application (BBMEC monolayers; LPA 10 uM, BBMEC): 2 fold | effect on porcine BMEC permeability in words [5]: concentration-dependent increase | onset of effect on cerebral vascular permeability (blood-brain barrier [6]): rapid in onset (within minutes) | reversal of permeability after LPA was stopped (blood-brain barrier [6]): returned to baseline levels extremely rapidly; also recorded: equally rapid in returning to baseline permeability | effect on 3H-methotrexate accumulation in liver or kidney (blood-brain barrier [2]; [7]): no significant increases; also recorded: no effect | increase in 3H-methotrexate accumulation in the lung (blood-brain barrier [2]; [7]): approximately 3 fold | brain to plasma ratio of 3H-methotrexate with LPA (blood-brain barrier [2]; LPA 1 mg/kg, 15 minutes after administration, mice): approximately 20% | onset of action in the mouse (blood-brain barrier [2]; LPA, mouse): ≤ 15 min | rhodamine 800 delivery to the brain with LPA (blood-brain barrier [4]; LPA 1.0 mg/kg i.v. with rhodamine 800 3.2 μmol/kg): substantially greater rhodamine 800 was delivered to the brain
